This test has as its system A549 cells (EGFR+, MET+). The experiment in a line: AlamarBlue cell viability assay, A549 cells. (In general: Alamar Blue is a resazurin reagent that responds to reducing activity.)

Non-standard residues stand in square brackets, D forms with d. Residues, ends and D or L forms follow the SMILES beside them. *: point of attachment. Dolaproine = CO[C@@H]([C@@H]1CCCN1)[C@@H](C)C(=O)O; Dil = CC[C@H](C)[C@H](NC)[C@@H](CC(=O)O)OC; X1 = C[C@@H](N*)[C@@H](O)c1ccccc1; NMeV = CN[C@H](C(=O)O)C(C)C

Procedure: Fig. 5 (a) Arming DNA-template strands in OS21 and OS21+3 with the toxin vcMMAE. […] Viability was normalized to PBS treatment (100% value) and ethanol treatment (0% value). Conditions: 10^4 cells per well in 100 µL medium and propagated 24 h to a confluency of ca. 85% cells, probes were incubated for 10 min in PBS, 37 °C, 5% CO2; AlamarBlue assay in full medium, 6 h.
A549 cells were incubated with the oligonucleotide assemblies for ten minutes. Cell viability was assessed six hours later using an AlamarBlue assay. […] For comparison, we assessed the viability response to treatment with MMAE at a 100 nM concentration in unconjugated form. […] Next, the cells were treated in the presence of HGF.
A549 cells were seeded into wells of a 96 well-microtiter plate (100 μL in respective medium)
at a density of 10 4 cells/well. Cells were allowed to grow for 24 h to a confluency of ca. 85%.
The medium was removed and wells carefully washed once with PBS (preheated at 37°C). The
probes were added at specific concentrations in PBS with or without HGF (100 ng/mL). The
cells were incubated at 37°C, 5% CO 2 for 10 minutes. After one careful wash with PBS, 10%
alamar blue was added, and the fluorescence signal (590 nm) was recorded after 6 hours using
Cytotoxicity of cathepsin B-cleavable vcMMAE-DNA-peptide complex with different […]

For `CC[C@H](C)[C@@H]([C@@H](CC(=O)N1CCC[C@H]1[C@H](OC)[C@@H](C)C(=O)N[C@H](C)[C@@H](O)c1ccccc1)OC)N(C)C(=O)[C@@H](NC(=O)[C@@H](NC)C(C)C)C(C)C` [MMAE, monomethyl auristatin E] (H-[NMeV]V[Dil][Dolaproine]-X1), the cell viability (100 nM, unconjugated form, 10 min in PBS, AlamarBlue 6 h (Fig. S17)) came out at 79%. For “HGF: hepatocyte growth factor, used at 100 ng/mL to induce MET internalization”, the “cell viability, control experiments (in words)” value (Fig. S17, 10 min in PBS, AlamarBlue 6 h) is recorded as “unaffected”.

As usually defined, the cell viability is a read-out of living cells in per cent, often relative to untreated cells.

These data come from paper PMC12694606, “DNA-programmed bispecific peptide assemblies for delivering cytotoxic payload to cells expressing EGFR and MET receptors” (RSC Chemical Biology, 2025).
